According to ChEMBL document CHEMBL5620412, “Discovery of benzofuran-2-carboxylic acid derivatives as lymphoid tyrosine phosphatase (LYP) inhibitors for cancer immunotherapy” (Eur J Med Chem, 2023):

Columns and labels:
[1] = target: T1, Protein phosphatase Slingshot homolog 2 (Homo sapiens, UniProt Q76I76); assay: Inhibition of N-terminal His-tagged SSH2 catalytic domain (1 to 294 residues) (unknown origin) expressed in Escherichia coli BL21 (DE3) cells
T1 sequence (Q76I76 whole entry): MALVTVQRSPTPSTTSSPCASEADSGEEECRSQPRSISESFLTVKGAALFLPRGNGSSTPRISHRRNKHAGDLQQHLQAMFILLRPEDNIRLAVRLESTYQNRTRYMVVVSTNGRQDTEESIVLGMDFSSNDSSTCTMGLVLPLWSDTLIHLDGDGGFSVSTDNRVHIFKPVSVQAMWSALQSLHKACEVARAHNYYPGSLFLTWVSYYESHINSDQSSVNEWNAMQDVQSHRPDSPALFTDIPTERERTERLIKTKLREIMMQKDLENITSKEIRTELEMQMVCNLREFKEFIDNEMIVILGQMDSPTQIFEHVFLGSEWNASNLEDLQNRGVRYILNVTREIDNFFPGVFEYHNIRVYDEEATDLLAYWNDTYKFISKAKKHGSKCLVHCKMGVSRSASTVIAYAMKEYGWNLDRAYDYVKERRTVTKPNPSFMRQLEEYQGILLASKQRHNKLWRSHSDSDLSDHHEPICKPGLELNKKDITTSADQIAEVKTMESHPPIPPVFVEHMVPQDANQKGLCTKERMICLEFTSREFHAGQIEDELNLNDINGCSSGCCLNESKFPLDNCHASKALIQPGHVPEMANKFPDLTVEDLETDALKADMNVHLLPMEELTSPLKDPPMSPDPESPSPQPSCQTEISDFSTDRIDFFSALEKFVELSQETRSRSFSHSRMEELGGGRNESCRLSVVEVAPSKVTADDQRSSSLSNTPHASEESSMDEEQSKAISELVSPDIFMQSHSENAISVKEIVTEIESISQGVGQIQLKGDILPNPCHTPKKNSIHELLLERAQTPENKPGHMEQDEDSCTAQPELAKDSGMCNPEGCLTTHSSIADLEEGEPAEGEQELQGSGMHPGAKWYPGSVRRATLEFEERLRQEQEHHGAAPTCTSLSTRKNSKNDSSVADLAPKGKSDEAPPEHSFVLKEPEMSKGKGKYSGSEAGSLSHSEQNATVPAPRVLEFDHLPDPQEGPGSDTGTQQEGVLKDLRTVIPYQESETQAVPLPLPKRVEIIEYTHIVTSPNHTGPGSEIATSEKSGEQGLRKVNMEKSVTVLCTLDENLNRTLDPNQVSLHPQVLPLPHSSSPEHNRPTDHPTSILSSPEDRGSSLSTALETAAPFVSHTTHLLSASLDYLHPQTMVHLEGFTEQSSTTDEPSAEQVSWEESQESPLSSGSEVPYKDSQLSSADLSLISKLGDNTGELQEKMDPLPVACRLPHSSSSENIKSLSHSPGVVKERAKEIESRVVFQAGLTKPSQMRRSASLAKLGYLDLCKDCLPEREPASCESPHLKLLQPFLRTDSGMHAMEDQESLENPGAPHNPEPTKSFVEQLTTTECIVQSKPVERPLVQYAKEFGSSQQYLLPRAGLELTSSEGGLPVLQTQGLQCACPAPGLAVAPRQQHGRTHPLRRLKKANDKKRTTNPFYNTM

[2] = target: T2, Tyrosine-protein phosphatase non-receptor type 22 (Homo sapiens, UniProt Q9Y2R2); assay: Competitive inhibition of N-terminal His-tagged LYP catalytic domain (1 to 294 residues) (unknown origin) expressed in Escherichia coli BL21 (DE3) cells using pNPP as substrate assessed as inhibition constant by Lineweaver-Burk plot analysis
T2 sequence (Q9Y2R2 whole entry): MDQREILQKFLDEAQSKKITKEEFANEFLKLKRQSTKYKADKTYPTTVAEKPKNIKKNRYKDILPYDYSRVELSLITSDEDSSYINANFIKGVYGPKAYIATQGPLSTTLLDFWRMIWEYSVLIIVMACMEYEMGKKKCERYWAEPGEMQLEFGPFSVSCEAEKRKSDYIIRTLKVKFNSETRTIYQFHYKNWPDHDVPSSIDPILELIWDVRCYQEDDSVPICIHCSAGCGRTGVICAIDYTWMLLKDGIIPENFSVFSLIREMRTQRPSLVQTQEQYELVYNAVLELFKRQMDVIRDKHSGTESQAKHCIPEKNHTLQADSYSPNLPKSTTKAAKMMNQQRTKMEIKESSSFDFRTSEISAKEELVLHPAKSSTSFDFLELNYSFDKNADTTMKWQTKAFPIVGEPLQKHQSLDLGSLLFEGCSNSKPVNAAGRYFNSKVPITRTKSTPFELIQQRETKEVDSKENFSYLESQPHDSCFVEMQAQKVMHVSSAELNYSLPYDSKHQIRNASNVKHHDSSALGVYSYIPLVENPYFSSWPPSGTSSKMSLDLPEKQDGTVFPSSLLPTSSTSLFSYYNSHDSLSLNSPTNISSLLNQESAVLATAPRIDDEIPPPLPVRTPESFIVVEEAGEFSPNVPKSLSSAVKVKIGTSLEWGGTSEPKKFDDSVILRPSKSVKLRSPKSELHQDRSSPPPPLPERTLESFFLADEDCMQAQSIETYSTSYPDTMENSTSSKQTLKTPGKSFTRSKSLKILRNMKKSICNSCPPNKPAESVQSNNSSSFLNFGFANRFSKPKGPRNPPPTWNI

SMILES | IC50 [1] | Ki [2]
COc1ccc(-c2ccc(CN(c3ccc4oc(C(=O)O)cc4c3)S(=O)(=O)c3ccc(Cl)c([N+](=O)[O-])c3)cc2)cc1 | > 20 µM | 1340 nM
O=C(O)c1cc2cc(N(Cc3cccc(-c4ccccc4)c3)S(=O)(=O)c3ccc(-c4ccccc4)cc3)ccc2o1 | > 20 µM | 
O=C(O)c1cc2cc(N(Cc3ccc(-c4ccccc4)cc3)S(=O)(=O)c3ccc(-c4cccc(O)c4)cc3)ccc2o1 | > 20 µM | 
O=C(O)c1cc2cc(N(Cc3ccc(OCc4ccccc4)cc3)S(=O)(=O)c3ccc(-c4ccccc4)cc3)ccc2o1 | > 20 µM | 930 nM
CC(=O)C1=C(C)N=c2s/c(=C/c3ccc(OCc4ccc(C(=O)O)cc4)cc3)c(=O)n2C1c1ccc(N(C)C)cc1 (stereo not drawn) | > 20 µM | 4380 nM
